Measurements published in US20260258064A1 (SIRONAX LTD., priority 2023, published 2026).

The compounds below were run against T1, SARM1 (50-724) (Homo sapiens, UniProt Q6SZW1) (assay: SARM1 (50-724) enzymatic assay (LC-MS/MS)). Settings: Purified SARM1 (50-724) 2 nM, NMN as activator, NAD+ as substrate, 1 h at room temperature, read-out: IC50 (SARM1 inhibitory activity).
T1 construct: Purified SARM1 (50-724) with a final concentration of 2 nM was pre-incubated with a test compound
T1 sequence (Q6SZW1 50-724): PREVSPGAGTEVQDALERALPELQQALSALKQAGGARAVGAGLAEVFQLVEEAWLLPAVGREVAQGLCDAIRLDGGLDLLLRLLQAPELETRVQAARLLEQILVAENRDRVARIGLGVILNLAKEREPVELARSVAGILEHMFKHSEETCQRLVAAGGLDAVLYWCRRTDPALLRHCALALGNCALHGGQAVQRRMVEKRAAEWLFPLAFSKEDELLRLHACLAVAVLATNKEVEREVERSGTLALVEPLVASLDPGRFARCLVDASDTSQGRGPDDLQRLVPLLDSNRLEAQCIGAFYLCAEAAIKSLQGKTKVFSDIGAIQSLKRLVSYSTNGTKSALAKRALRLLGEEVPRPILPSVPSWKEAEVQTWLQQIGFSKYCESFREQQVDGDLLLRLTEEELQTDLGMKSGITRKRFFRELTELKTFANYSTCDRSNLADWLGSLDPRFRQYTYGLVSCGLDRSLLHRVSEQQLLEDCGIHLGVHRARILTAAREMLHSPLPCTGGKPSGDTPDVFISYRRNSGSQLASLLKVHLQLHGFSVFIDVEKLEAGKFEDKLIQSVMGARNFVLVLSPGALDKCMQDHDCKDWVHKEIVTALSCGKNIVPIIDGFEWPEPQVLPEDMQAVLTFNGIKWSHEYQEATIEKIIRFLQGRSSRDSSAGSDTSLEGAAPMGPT
Assay type: biochemical
Outline: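 Human SARM1 (50-724), 2 nM, pre-incubated 15 min at room temperature with compound in Dulbecco's PBS. Reaction started with 200 µM NMN (activator) plus […] NAD^+ substrate, run 1 h at room temperature, quenched with 70% acetonitrile. Turnover quantified by LC-MS/MS; IC50 reported.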
With `Cc1cnn(-c2cc(F)c3[nH]c(-c4nncn4-c4cnccc4C(F)(F)F)nc3c2)c1` [Compound 400, 7-fluoro-5-(4-methyl-1H-pyrazol-1-yl)-2-(4-(4-(trifluoromethyl)pyridin-3-yl)-4H-1,2,4-triazol-3-yl)-1H-benzo[d]imidazole] the IC50 was ≤ 100 nM.
`Cc1cc(-c2ccc3[nH]c(-c4nncn4-c4cccc(Cl)c4Cl)nc3c2)n(C)n1` [Example 74, 2-(4-(2,3-dichlorophenyl)-4H-1,2,4-triazol-3-yl)-5-(1,3-dimethyl-1H-pyrazol-5-yl)-1H-benzo[d]imidazole] was tested, and the IC50 was ≤ 100 nM.
Compound `Cc1ccc2[nH]c(-c3nccn3C3CCCC3)nc2c1` [Compound 2, 2-(1-cyclopentylimidazol-2-yl)-5-methyl-1H-benzimidazole] has an IC50 of 500 to 1000 nM.
`CS(=O)(=O)Cc1nnc(-c2nc3cc(C(F)(F)F)cc(F)c3[nH]2)n1-c1cccc(F)c1Cl` (single isomer, unassigned) [Compound 183, 2-(4-(2-Chloro-3-fluorophenyl)-5-((methylsulfonyl)methyl)-4H-1,2,4-triazol-3-yl)-7-fluoro-5-(trifluoromethyl)-1H-benzo[d]imidazole] showed an IC50 of 100 to 500 nM.
With `CN(C)c1ccncc1-n1cnnc1-c1nc2cc(C(F)(F)F)ccc2[nH]1` [Compound 245, N,N-dimethyl-3-(3-(5-(trifluoromethyl)-1H-benzo[d]imidazol-2-yl)-4H-1,2,4-triazol-4-yl)pyridin-4-amine] the IC50 was ≤ 100 nM.
For `FC(F)Oc1ncccc1-n1cnnc1-c1nc2cc(C(F)(F)F)ccc2[nH]1` [Compound 235, 2-(4-(2-(difluoromethoxy)pyridin-3-yl)-4H-1,2,4-triazol-3-yl)-5-(trifluoromethyl)-1H-benzo[d]imidazole], the IC50 was ≤ 100 nM.
For `FC(F)(F)Oc1ccc(Oc2ncco2)cc1-n1cnnc1-c1nc2cc(C(F)(F)F)ccc2[nH]1` [Compound 281, 2-(4-(trifluoromethoxy)-3-(3-(5-(trifluoromethyl)-1H-benzo[d]imidazol-2-yl)-4H-1,2,4-triazol-4-yl)phenoxy)oxazole], the IC50 was ≤ 100 nM.
With `CS(=O)(=O)c1c(-c2nncn2-c2cccc(F)c2Cl)[nH]c2ccc(C(F)(F)F)cc12` [Compound 346, 2-[4-(2-chloro-3-fluorophenyl)-1,2,4-triazol-3-yl]-3-methanesulfonyl-5-(trifluoromethyl)-1H-indole] the IC50 was ≤ 100 nM.
In the case of `Cn1cc(-c2cccc(F)c2Cl)c(-c2nc3cc(CC(N)=O)ccc3[nH]2)cc1=O` [Compound 179, 2-(2-(5-(2-chloro-3-fluorophenyl)-1-methyl-2-oxo-1,2-dihydropyridin-4-yl)-1H-benzo[d]imidazol-5-yl)acetamide], the IC50 is reported as 100 to 500 nM.
For `NC(=O)C(F)(F)c1ccc2[nH]c(-c3nncn3-c3ccc(F)c(F)c3Cl)nc2c1` [Compound 463, 2-(2-(4-(2-chloro-3,4-difluorophenyl)-4H-1,2,4-triazol-3-yl)-1H-benzo[d]imidazol-5-yl)-2,2-difluoroacetamide], the IC50 was ≤ 100 nM.
For `COc1ncc(Cl)c(-n2cnnc2-c2nc3cc(C(F)(F)F)ccc3[nH]2)n1` [Compound 169, 2-(4-(5-chloro-2-methoxypyrimidin-4-yl)-4H-1,2,4-triazol-3-yl)-5-(trifluoromethyl)-1H-benzo[d]imidazole], the IC50 was > 1000 nM.
`FC(F)(F)Oc1cnc(-n2cccn2)cc1-n1cnnc1-c1nc2cc(C(F)(F)F)ccc2[nH]1` [Compound 264, 2-(4-(2-(1H-pyrazol-1-yl)-5-(trifluoromethoxy)pyridin-4-yl)-4H-1,2,4-triazol-3-yl)-5-(trifluoromethyl)-1H-benzo[d]imidazole] was tested, and the IC50 was ≤ 100 nM.
`Cc1ccc2[nH]c(-c3ncccc3C3CCCC3)nc2c1` [Compound 7, 2-(3-cyclopentylpyridin-2-yl)-5-methyl-1H-benzo[d]imidazole] was tested, and the IC50 was > 1000 nM.
For `CC(=O)c1ccc2[nH]c(-c3nncn3-c3ccc(F)c(F)c3Cl)nc2c1` [Compound 158, 1-(2-(4-(2-chloro-3,4-difluorophenyl)-4H-1,2,4-triazol-3-yl)-1H-benzo[d]imidazol-5-yl)ethan-1-one], the IC50 was ≤ 100 nM.
With `COc1ccc(Cl)c(-n2cnnc2-c2nc3cc(C(F)(F)F)ccc3[nH]2)n1` [Example 114] the IC50 was ≤ 100 nM.
For `Cc1ccc2[nH]c(C3CCCN3c3cccc(Cl)c3Cl)nc2c1` (centres unmarked) [Compound 13, 2-(1-(2,3-Dichlorophenyl)pyrrolidin-2-yl)-5-methyl-1H-benzo[d]imidazole], the IC50 was > 1000 nM.
`Cn1cc(-c2ccccc2)c(-c2nc3cc(C(F)(F)F)ccc3[nH]2)cc1=O` [Example 86] was tested, and the IC50 was > 1000 nM.
`CC(C)(CO)c1ccc2[nH]c(-c3nncn3-c3cccc(Cl)c3Cl)nc2c1` [Example 103] was tested, and the IC50 was ≤ 100 nM.
With `Cc1cncc(-n2cnnc2-c2nc3cc(C(F)(F)F)ccc3[nH]2)c1Cl` [Example 123] the IC50 was ≤ 100 nM.
For `O=C(O)C1(c2ccc3[nH]c(-c4nncn4-c4cccc(Cl)c4Cl)nc3c2)CCC1` [Example 113], the IC50 was ≤ 100 nM.
With `CC(c1cc(F)c2[nH]c(-c3nncn3-c3cnccc3C(F)(F)F)nc2c1)n1cccn1` (centres unmarked) [Compound 454, 5-(1-(1H-pyrazol-1-yl)ethyl)-7-fluoro-2-(4-(4-(trifluoromethyl)pyridin-3-yl)-4H-1,2,4-triazol-3-yl)-1H-benzo[d]imidazole] the IC50 was ≤ 100 nM.
For `CC(C#N)(CO)c1ccc2[nH]c(-c3nncn3-c3cccc(F)c3Cl)nc2c1` (centres unmarked) [Compound 204, 2-(2-(4-(2-chloro-3-fluorophenyl)-4H-1,2,4-triazol-3-yl)-1H-benzo[d]imidazol-5-yl)-3-hydroxy-2-methylpropanenitrile], the IC50 was ≤ 100 nM.
With `Fc1cc(C(F)(F)F)cc2nc(-c3nncnc3-c3cnccc3C(F)(F)F)[nH]c12` [Compound 336, 7-fluoro-5-(trifluoromethyl)-2-(5-(4-(trifluoromethyl)pyridin-3-yl)-1,2,4-triazin-6-yl)-1H-benzo[d]imidazole] the IC50 was ≤ 100 nM.
`CS(=O)(=O)CCOc1ccc(OC(F)(F)F)c(-n2cnnc2-c2nc3cc(C(F)(F)F)ccc3[nH]2)n1` [Compound 267] was tested, and the IC50 was ≤ 100 nM.
`FC(F)(F)c1ccc2[nH]c(-c3nncn3-c3nsc(Cl)c3Cl)nc2c1` [Example 106] was tested, and the IC50 was ≤ 100 nM.
With `NC(=O)c1cc(-n2cnnc2-c2nc3cc(C(F)(F)F)ccc3[nH]2)c(Cl)cn1` [Compound 211, 5-chloro-4-(3-(5-(trifluoromethyl)-1H-benzo[d]imidazol-2-yl)-4H-1,2,4-triazol-4-yl)picolinamide] the IC50 was ≤ 100 nM.
`CC(c1cc(F)c2[nH]c(-c3nncn3-c3cnccc3C(F)(F)F)nc2c1)C(F)(F)F` (centres unmarked) [Compound 278, 7-fluoro-2-(4-(4-(trifluoromethyl)pyridin-3-yl)-4H-1,2,4-triazol-3-yl)-5-(1,1,1-trifluoropropan-2-yl)-1H-benzo[d]imidazole] was tested, and the IC50 was ≤ 100 nM.
In the case of `CC(c1cc(F)c2[nH]c(-c3nncn3-c3cnccc3C(F)(F)F)nc2c1)c1ncco1` (centres unmarked) [Compound 435, 2-(1-(7-fluoro-2-(4-(4-(trifluoromethyl)pyridin-3-yl)-4H-1,2,4-triazol-3-yl)-1H-benzo[d]imidazol-5-yl)ethyl)oxazole], the IC50 is reported as ≤ 100 nM.
`CP(C)(=O)c1cc(F)c2[nH]c(-c3nncn3-c3cnccc3C(F)(F)F)nc2c1` [Compound 392, 5-dimethylphosphoryl-7-fluoro-2-[4-[4-(trifluoromethyl)-3-pyridyl]-1,2,4-triazol-3-yl]-1H-benzimidazole] gave an IC50 of 100 to 500 nM.
